Entries after “also recorded” stand apart in the source; their conditions may differ.
Columns and labels:
[1] = James et al. (2005); cited from earlier work
CEM leukemia cells = test: Mitochondrial membrane potential (Δψm) assay, TMRM, FACS; assay type: cell-based, human; conditions: pretreatment 0.5, 1 or 2.5 μM overnight, DEM
Method: Measurement of Mitochondrial Membrane Potential (Δψm)(FACS). For the determination of Δψm, CEM leukemia cells were pre-treated with or without the test compounds. The cells were treated with 5 mM DEM for 120 minutes, collected by centrifugation at 300×g for 3 minutes and then washed twice with phosphate buffered saline. The cells were re-suspended in HSSB buffer and incubated at 37° C. in the dark for 15 minutes with 250 nM TMRM (a cationic dye which accumulates within mitochondria in accordance with the Δψm Nernst potential). Cells were collected by centrifugation at 300×g for 3 minutes and then washed twice with phosphate buffered saline. The samples were analyzed immediately by flow cytometry using 488 nm excitation laser and the FL2-H channel. The results obtained were verified in three independent experiments. The protonophore FCCP (30 μM) was used to dissipate the chemiosmotic proton gradient (ΔμH^+) and served as a control for loss of Δψm. In each analysis, 10,000 events were recorded.

cytochrome c = test: Cytochrome c reduction assay; assay type: biochemical; conditions: 100 μM compound, 10 μM cytochrome c, absorbance 550 nm
Method: The rate of cytochrome c (10 μM) reduction was measured by monitoring the change in absorbance at 550 nm. Briefly the reaction was initiated by addition of 100 μM of the invention compounds to a mixture containing 50 mM phosphate buffer, 0.1 mM EDTA, pH 7.8, and 10 μM cytochrome c (Sigma, St. Louis, Mo. USA). For cytochrome c reduction by superoxide, xanthine oxidase (0.01 IU/mL) (Sigma, St. Louis, Mo. USA) was used in presence of xanthine (50 μM).

[2] = C11-BODIPY581/591 oxidation lipid peroxidation assay in liposomes; conditions: 10 mM AAPH, phospholipid liposomes, phosphate buffer, 40° C.
Method: To overcome the problem of spectral overlap using cis-parinaric acid, a fluorescence assay for lipid peroxidation using a lipophilic probe belonging to the BODIPY class of fluorescent dyes was used. C11-BODIPY^581/591 (4,4-difluoro-5(4-phenyl-1,3-butadienyl)-4-bora-3a,4a-diaza-s-indacene-3-propionic acid) fluorescence shifts from red to green upon oxidation. C11-BODIPY^581/591 (Molecular Probes, Eugene, Oreg., USA) stock solution concentrations were determined by measuring the absorption of C11-BODIPY^581/591 at 582 nm using a molar extinction coefficient of 140,000 mol^−1 cm^−1(R. P. Haugland, (1999) Handbook of Fluorescent Probes and Research Chemicals, Molecular Probes, Inc., Eugene, Oreg.). The lipid peroxidation inducer 2,2′-Azobis (2-amidino-propane dihydrochloride) (AAPH) and the antioxidant compound α-tocopherol were obtained from Sigma (St. Louis, Mo., USA). Phospholipid bilayers were prepared from 1-stearoyl-2-oleoyl-phosphatidylcholine (SOPC) and 1,2-dilinoleoyl-phosphatidylcholine (DLPC) and were purchased from Avanti® polar lipids, INC (Alabaster, Ala., USA).
Phosphotidylcholine (PC) liposomes were prepared as described before (Guey-Shuang et al. (1982) Lipids. 17, 403-413). Briefly, DLPC (25 mg) and SOPC (25 mg) were dissolved in chloroform and the solvent was removed by nitrogen evaporation (˜2 hours to give a thin film of PC in a round bottom flask. The lipid film was hydrated with 50 mL of 10 mM Tris-HCl (pH 7.4), 100 mM KCl, shaken and sonicated for 15 seconds. The liposomes obtained were filtered several times through 0.2 μM membrane filter.
C11 BODIPY^581/591 was incorporated into liposomes and oxidized by peroxyl radicals derived from the decomposition of AAPH in presence and absence of the compounds. […] Liposomes were pre-incubated for 10 min with 200 nM C11 BODIPY^581/591 to allow their incorporation into the lipid phase of the liposomes. After the addition of AAPH (10 mM) the decay of red fluorescence was followed at λ exc=570 nm, λ em=600 nm. Relative fluorescence units were normalized to 100% intensity. Results obtained were verified by repeating experiments N=3 independent experiments.

CEM cells [3] = test: Trypan blue cell viability assay, DEM-treated cells; assay type: cell-based, human
Method: Cell viability determined by trypan blue exclusion assay: This technique was used to assess the cytoprotective effects of the invention compounds in cultured cells pharmacologically treated to induce cell death by GSH depletion. DEM was used to deplete cellular GSH and induce oxidative stress. The viability of DEM-treated CEM cells was determined by their ability to exclude the dye trypan blue. Viable cells exclude trypan blue; whereas, non-viable cells take up the dye and stain blue. Briefly, CEM cells were grown in RPMI 1640 medium (GIBCO, Grand island, N.Y., USA) supplemented with 10% fetal calf serum, 2 mM glutamine (HyClone, South Logan, Utah, USA), 1% penicillin-streptomycin mix (Cellgro, Manassan, Va., USA). Cells were seeded at a density of 1×10^6 cells/mL and treated with different concentrations of the invention compounds. Cells were incubated at 37° C. in a humidified atmosphere of 5% CO2 in air for three hours with 5 mM DEM. Cell viability was determined by staining cells with 0.4% trypan blue using a hemacytometer. At least 500 cells were counted for each experimental group. At the time of assay, >95% of DEM-treated cells were trypan blue positive; whereas, in non-DEM treated control cell cultures >95% cells were viable. Cell viability was expressed as the percentage of control. Data are expressed as means±S.E.M (n=3).

CEM cells [4] = test: Reactive oxygen species (ROS) assay, DCFH-DA, DEM-treated cells; assay type: cell-based, human; conditions: for protection against ROS production (DCF fluorescence): 5 mM DEM
Excerpt: Cellular ROS production can be monitored using 2′,7′-dichlorodihydrofluorescein diacetate (DCFH-DA) (LeBel et al. (1992) Chem. Res. Toxicol. 5, 227-231) (Molecular Probes, Eugene, Oreg., USA), a membrane permeable and oxidant-sensitive fluorescent dye. DCFH-DA is a non-fluorescent derivative of fluorescein that emits fluorescence after being oxidized by hydrogen peroxide and other ROS. The emitted fluorescence is directly proportional to the concentration of hydrogen peroxide. DCFH-DA is nonionic and nonpolar and is easily taken up by cells. Once inside the cell, DCFH-DA is hydrolyzed by cellular esterases to non-fluorescent DCFH which traps the dye in the cell. In the presence of ROS including hydrogen peroxide, DCFH is oxidized to the highly fluorescent compound dichlorofluorescein (DCF). The intracellular DCF fluorescence is used as an index of cellular ROS production.
Cellular oxidative stress was induced by pharmacological depletion of glutathione (GSH) using the chemical diethylmaleate (DEM). ROS production was assessed by monitoring DCF fluorescence. Leukemic CEM cells (ATCC®, catalogue number CRL-2264) were cultured in RPMI (GIBCO, Grand island, N.Y., USA) with 10% FCS, 2 mM glutamine (HyClone, South Logan, Utah, USA) and 1% penicillin-streptomycin mix antibiotics (Cellgro, Manassan, Va., USA) supplements. Cells were maintained in the log phase at a concentration of between 1×10^5 and 1×10^6 cells/mL. CEM cells (1×10^6 cell/mL) were plated (1 mL) in twelve well plate and treated with the invention compounds (final concentration 1 and 5 μM), and incubated for two hours at 37° C., 5% CO2. The compounds tested were prepared by first making stock solutions (2.5 mM) in dimethylsulfoxide (DMSO). Cells were treated with 5 mM DEM for 30 minutes and collected by centrifugation at 300×g for 3 min and then washed twice with Hanks' Balanced Salt Solution (HSSB) buffer (Sigma, St. Louis, Mo. USA). Cells were resuspended in HSSB buffer+10 mM glucose and incubated at 37° C. in the dark for 20 min with 10 μM DCFH-DA. Cells were collected by centrifugation at 300×g for 3 min and then washed twice with HSSB buffer. The samples were analyzed immediately by flow cytometry (Becton-Dickinson FACS Caliber), (Cell Quest software, BD Biosciences) using 488 nm excitation laser and FL1-H channel 538 nm emission filter. In each analysis, 10,000 events were recorded after cell debris were electronically gated out. Results obtained were verified by repeating experiments N=3 independent experiments. Authentic hydrogen peroxide was used as a positive control.

SMILES	calculated octanol-water partition coefficient [1]	maintaining mitochondrial membrane potential Δψm (CEM leukemia cells)	reduction of cytochrome c (cytochrome c)	quenching of lipid peroxidation (retention of C11-BODIPY581/591 fluorescence) [2]	EC50 (CEM cells [3]; Homo sapiens, CCRF-CEM, CEM cells, pre-treatment 2 h, diethylmaleate 3 h, trypan blue exclusion, read-out: EC50 (effective concentration that prevents 50% of cell death)) [nM]	maintaining cell viability (trypan blue exclusion) (CEM cells [3]; overnight incubation, then 5 mM DEM, 3 h)	protection against ROS production (DCF fluorescence) (CEM cells [4]; compound 1 μM)	protection against ROS production (DCF fluorescence) (CEM cells [4]; compound 5 μM)	suppression of ROS production (DCF fluorescence) (CEM cells [4]; pretreatment 0.5, 1 or 5 μM, DEM)
COC1=C(OC)C(=O)C(C/C=C(\C)CC/C=C(\C)CC/C=C(\C)CC/C=C(\C)CC/C=C(\C)CC/C=C(\C)CC/C=C(\C)CC/C=C(\C)CC/C=C(\C)CCC=C(C)C)=C(C)C1=O [coenzyme Q10]	> 10^20	–	–	–	–	–	–	–	–
Cc1cc(N(C)C)nc(CCCCCCCCCCO)c1O [Compound B, 2-N,N-dimethylamino-5-hydroxy-4-methyl-6-(10-hydroxydecyl)-pyridine]	–	clearly more effective in maintaining mitochondrial membrane potential; also recorded: very favorable properties	clearly reduce cytochrome c	about as effective as C	300 ± 22	quite effective in maintaining cell viability following DEM treatment; also recorded: superior to idebenone in maintaining the viability of DEM-treated cells	less effective at this concentration	significantly more effective in blocking diethylmaleate-induced ROS production compared to idebenone or its reduced form (Idebenol); also recorded: protected the cells	more effective than idebenone at all tested concentrations; also recorded: more effective than idebenone in suppressing ROS in a dose-dependent fashion

Reference: patent publication US8952025B2, “Multifunctional radical quenchers and their uses” (Arizona Board of Regents, A Body Corporate of the State of …, priority 2010, dated 2015)
